The values below come from US20070032471A1, “Active substance combination comprising a 2,5-dihydroxybenzenesulfonic compound and a potassium ion channel modulator” (LABORATORIOS DEL DR. ESTEVE S.A., priority 2003, published 2007).

One test relates to diabetic rats. Nature of the test: Erectile response to cavernosal nerve electrical stimulation in anaesthetized diabetic rats. The note with it: administered alone, intravenous administration. It counts as in vivo, rat. Here is the method: The in-vivo activity of the active substance combination is tested as described in the reference of Saénz Tejada et al. in International Journal of Impotence Research 2003, 15, 90-93 under “Methods—Erectile responses to cavernosal nerve stimulation in anaesthetized rats”, which is hereby incorporated by reference and forms part of the disclosure. The erectile response to cavemosal nerve electrical stimulation in anaesthetized diabetic rats was determined as described above.

Test [1] relates to human penile resistance arteries. Put plainly: Effect of calcium dobesilate on relaxation induced by K(ATP)-channel activation (pinacidil) in human penile arteries. The note with it: calcium dobesilate 10 μM for 30 min; norepinephrine-contracted arteries; pinacidil 1 nM to 1 mM. On the procedure: (§1) Penile small arteries, […] arteries (lumen diameter 150-400 μm), which are the terminal branches of deep penile arteries, are dissected by carefully removing the adhering trabecular tissue, and arterial ring segments (2 mm long) and are subsequently mounted on two 40 μm wires on microvascular Halpern-Mulvany myographs (J. P. Trading, Aarhus, Denmark) for isometric tension recordings. The vessels are allowed to equilibrate for 30 min in physiological salt solution (PSS) of the following composition (mmol/l): NaCl 119, KCl 4.6, CaCl2 1.5, MgCl2 1.2, NaHCO3 24.9, glucose 11, KH2PO4 1.2, EDTA 0.027 at 37° C. continuously bubbled with 95% 02/5% CO2 mixture to maintain a pH of 7.4. Passive tension and internal circumference of vascular segments when relaxed in situ under a transmural pressure of 100 mmHg (L100), are determined. […] The preparations are then exposed to 125 mM K^+ (KPSS, equimolar substitution of […] in PSS) and the contractile response is measured. […] At this time, responses to pinacidil are again evaluated in NE-contracted arteries. […] Relaxation responses are expressed as percentage of total relaxation (loss in tone) induced by the addition of 0.1 mmol/l papaverine HCl to the chambers at the end of the experiment. All data are expressed as mean±standard error. […]

For test [2] the test system is unchanged. Put plainly: Effect of calcium dobesilate on relaxation induced by Ca2+-activated K+-channel activation (NS1619) in human penile arteries. The note with it: calcium dobesilate 10 μM for 30 min; norepinephrine-contracted arteries; NS1619 1 nM to 10 μM. Here is the method:
as §1, with “NS1619” for “pinacidil”

Consider `O=c1[nH]c2cc(C(F)(F)F)ccc2n1-c1cc(C(F)(F)F)ccc1O` [NS1619, 1-[2-Hydroxy-5-(trifluoromethyl)phenyl]-5-(trifluoromethyl)-1,3-dihydro-2H-benzimidazol-2-one], for which the erectile response result in the test with diabetic rats (0.3 mg/kg or 5 mg/kg) was “do not modify the erectile response”.
For the molecule `O=S(=O)(O)c1cc(O)ccc1O` [calcium dobesilate, calcium 2,5-dihydroxybenzenesulfonate], the “potentiation of relaxation induced by activation of K(ATP) channels with pinacidil” value in test [1] is on record as “significantly potentiates”. Also, the “potentiation of relaxant responses induced by K(Ca) channel activation” value in test [2] is on record as “strongly potentiates”. Besides, the erectile response result in the test with diabetic rats (10 mg/kg) is “do not modify the erectile response”.
